{"source": "patent US20080207673A1", "about": "“Method for Treating Cancer, Coronary, Inflammatory and Macular Disease, Combining the Modulation of Zinc-and/or Copper Dependent Proteins” (priority 2005, published 2008)", "key": {"HCV RNA Replicons": {"test_system": "HCV RNA Replicons", "experiment": "HCV RNA replicon antiviral activity testing (luciferase)", "assay_type": "cell-based, Hepatitis C virus", "settings": "for inhibition at 20 µM: Hepatitis C virus, 20 micromolar, read-out: Antiviral Activity (luciferase, percent inhibition of virus control)"}, "[1]": {"settings": "cited from earlier work"}, "Huh7 ET": {"test_system": "Huh7 ET", "experiment": "Cytotoxicity in the HCV replicon cell line (actively dividing cells)", "assay_type": "cell-based", "settings": "single high test concentration, 20 micromolar", "source_text": "The cell line used was Huh7 ET."}, "hepatitis B (HBV)": {"test_system": "hepatitis B (HBV)", "experiment": "NIH hepatitis B screening", "assay_type": "cell-based, hepatitis B virus", "settings": "negative because of cytotoxicity of the cell line used", "source_text": "The HBV research is run by the University of Georgetown (Dr. Brent Korba). The results with HBV were negative at this point because of cytotoxicity of the cell line used."}, "Aβ (1-40)": {"target": "T1, Aβ (1-40) (Homo sapiens, UniProt P05067)", "T1 construct": "A 5 mg/ml stock solution of Aβ (1-40) (delivered from Bachem (CH)); purchased Bachem (CH)", "T1 sequence (P05067 672-711 limits assumed)": "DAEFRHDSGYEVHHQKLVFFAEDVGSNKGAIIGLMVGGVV", "experiment": "Thioflavin T fluorometric assay of metal-ion induced Aβ aggregation", "assay_type": "biochemical", "settings": "test compound 10 μg/ml, 24 hours", "method": "A 5 mg/ml stock solution of Aβ (1-40) (delivered from Bachem (CH)) was freshly prepared before each experiment by dissolving the lyophilized peptide in 0.01 M HCl, followed by subsequent dilution 1.1 with 0.01 M NaOH to yield a neutral pH. Aliquot of Aβ (1-40) were diluted in PBS (pH 7.4) to 100 [mu]M and incubated at a total volume of 30 μ/l for 24 hours at room temperature. For co-incubation experiments, the indicated concentrations of metal ions and/or aliquot of test compounds were added. The test compounds were added to a final molar concentration of 10 μg/ml.\nThe amyloid formation was quantified by a thioflavin T fluorometric assay. Thioflavin binds specifically to amyloid and this introduces a shift in its emission spectrum and a fluorescent signal proportional to the amount of amyloid is formed. After incubation, Aβ (1-40) peptides were added to PBS (pH 6.0) and 3 μM thioflavin T in a final volume of 1 ml. Fluorescence was monitored at excitation 454 nm and emission 482 nm using a Fluoroscan II fluorometer (Molecular devices, UK). A time scan of fluorescence was performed and three values after the decay reached a plateau (around 5 minutes) were averaged after subtracting the background fluorescence of 3 μM thioflavin T. For co-incubation experiments, fluorescence of test compound alone was determined. Samples were run in triplicate.\nIt was studied whether the two compounds had any effect on metal-ion catalysed Aβ aggregation, especially the aggregation caused by Zn and Cu."}, "MMP-2": {"target": "T2, MMP-2 (Homo sapiens, UniProt P08253)", "T2 sequence (P08253 110-660)": "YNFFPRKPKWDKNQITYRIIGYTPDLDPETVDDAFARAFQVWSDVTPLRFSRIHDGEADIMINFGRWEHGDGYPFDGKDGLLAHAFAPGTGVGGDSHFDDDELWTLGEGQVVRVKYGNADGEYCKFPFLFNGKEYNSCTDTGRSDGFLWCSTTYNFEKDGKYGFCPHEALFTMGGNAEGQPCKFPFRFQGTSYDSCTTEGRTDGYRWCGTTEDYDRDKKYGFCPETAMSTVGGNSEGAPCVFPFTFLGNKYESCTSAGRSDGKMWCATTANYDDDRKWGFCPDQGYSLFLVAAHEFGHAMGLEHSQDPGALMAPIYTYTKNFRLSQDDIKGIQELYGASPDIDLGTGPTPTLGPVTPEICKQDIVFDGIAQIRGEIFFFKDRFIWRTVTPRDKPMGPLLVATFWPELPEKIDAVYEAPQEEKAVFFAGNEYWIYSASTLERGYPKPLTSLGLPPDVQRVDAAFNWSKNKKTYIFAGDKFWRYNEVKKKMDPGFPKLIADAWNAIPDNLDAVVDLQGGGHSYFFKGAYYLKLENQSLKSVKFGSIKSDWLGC", "experiment": "MMP enzyme assay, fluorometric", "assay_type": "biochemical", "method": "(§1) An enzyme assay was conducted with five of the enzymes belonging to the MMP group. Specifically, the assay was conducted for MMP-1, MMP-2, MMP-3, MMP-7, and MMP-9 at various concentrations.\n(§2) A test substrate of Mca-Pro-Leu-Gly-Leu-Dpa-Ala-Arg-NH2 was subsequently added to obtain a concentration of 25 μM. MMP-1 was incubated for 2 hours at 37EC, MMP-2 was incubated for 3 hours at 25EC, MMP-3 was incubated for 90 min at 37EC. MMP-7 was incubated for 90 min at 37EC, and MMP-9 was incubated for 2 hours at 25 degrees Celsius. The activity of the enzymes was measured by fluorometric quantisation of Mca-Pro-Leu-Gly-OH."}, "MMP-1": {"target": "T3, MMP-1 (Homo sapiens, UniProt P03956)", "T3 sequence (P03956 100-469)": "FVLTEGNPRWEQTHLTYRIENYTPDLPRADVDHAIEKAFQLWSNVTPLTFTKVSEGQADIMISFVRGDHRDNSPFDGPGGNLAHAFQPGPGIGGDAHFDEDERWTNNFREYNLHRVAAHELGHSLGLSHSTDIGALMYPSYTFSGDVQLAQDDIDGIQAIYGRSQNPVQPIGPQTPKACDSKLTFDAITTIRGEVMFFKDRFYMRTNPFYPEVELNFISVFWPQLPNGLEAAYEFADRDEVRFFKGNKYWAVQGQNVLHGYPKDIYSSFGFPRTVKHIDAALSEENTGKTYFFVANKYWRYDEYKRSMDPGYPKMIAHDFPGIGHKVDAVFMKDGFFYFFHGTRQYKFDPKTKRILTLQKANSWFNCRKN", "experiment": "MMP enzyme assay, fluorometric", "assay_type": "biochemical", "method": "as §1, §2"}, "MMP-7": {"target": "T4, MMP-7 (Homo sapiens, UniProt P09237)", "T4 sequence (P09237 95-267)": "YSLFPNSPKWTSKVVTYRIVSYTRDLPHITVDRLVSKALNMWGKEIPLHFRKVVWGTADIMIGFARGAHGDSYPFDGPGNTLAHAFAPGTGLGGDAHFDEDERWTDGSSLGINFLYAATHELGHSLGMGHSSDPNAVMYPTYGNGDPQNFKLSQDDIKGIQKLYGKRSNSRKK", "experiment": "MMP enzyme assay, fluorometric", "assay_type": "biochemical", "method": "as §1, §2"}, "MMP-9": {"target": "MMP-9 (Homo sapiens, UniProt P14780)", "sequence (P14780 94-707, species assumed)": "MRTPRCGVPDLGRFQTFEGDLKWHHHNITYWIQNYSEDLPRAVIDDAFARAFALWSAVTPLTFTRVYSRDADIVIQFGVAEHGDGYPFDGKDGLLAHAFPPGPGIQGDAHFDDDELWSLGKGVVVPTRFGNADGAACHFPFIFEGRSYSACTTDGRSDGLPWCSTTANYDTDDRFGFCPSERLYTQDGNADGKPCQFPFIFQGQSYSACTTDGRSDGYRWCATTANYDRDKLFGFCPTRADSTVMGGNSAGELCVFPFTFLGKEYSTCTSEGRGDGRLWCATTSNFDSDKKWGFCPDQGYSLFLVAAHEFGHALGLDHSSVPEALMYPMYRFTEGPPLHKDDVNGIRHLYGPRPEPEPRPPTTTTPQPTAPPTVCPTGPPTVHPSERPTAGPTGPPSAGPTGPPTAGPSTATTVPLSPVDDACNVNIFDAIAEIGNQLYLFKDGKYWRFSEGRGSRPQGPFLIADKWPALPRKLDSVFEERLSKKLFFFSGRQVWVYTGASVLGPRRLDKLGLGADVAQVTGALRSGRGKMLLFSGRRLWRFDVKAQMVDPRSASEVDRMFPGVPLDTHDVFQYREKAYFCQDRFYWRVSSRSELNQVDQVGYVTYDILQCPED", "experiment": "MMP enzyme assay, fluorometric", "assay_type": "biochemical", "method": "as §1, §2"}, "MMP-3": {"target": "MMP-3 (Homo sapiens, UniProt P08254)", "sequence (P08254 100-477, species assumed)": "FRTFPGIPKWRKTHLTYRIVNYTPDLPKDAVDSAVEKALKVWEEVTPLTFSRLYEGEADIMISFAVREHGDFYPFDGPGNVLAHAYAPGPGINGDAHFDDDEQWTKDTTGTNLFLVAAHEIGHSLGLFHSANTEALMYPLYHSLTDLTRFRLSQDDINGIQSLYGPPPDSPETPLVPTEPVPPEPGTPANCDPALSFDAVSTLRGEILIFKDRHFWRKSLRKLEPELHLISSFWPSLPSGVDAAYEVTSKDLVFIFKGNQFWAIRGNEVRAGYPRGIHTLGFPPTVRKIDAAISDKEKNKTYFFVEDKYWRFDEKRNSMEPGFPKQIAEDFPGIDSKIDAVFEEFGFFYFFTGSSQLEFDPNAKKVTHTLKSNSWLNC", "experiment": "MMP enzyme assay, fluorometric", "assay_type": "biochemical", "method": "as §1, §2"}, "[2]": {"settings": "brain; cited from earlier work"}, "[3]": {"settings": "cited from earlier work", "remark": "listed apart in the source"}, "PC12 cells": {"test_system": "PC12 cells", "experiment": "MTT reduction, Aβ (25-35) induced toxicity in PC12 cells", "assay_type": "cell-based, Rat", "settings": "10 μg phanquinone per ml", "method": "Aβ (25-35) was delivered by Bachem (CH) or Sigma (USA) and dissolved in phosphate buffered saline (PBS) at pH 7, 4, 2 hours prior to application.\nRat PC12 pheochromocytoma cells were grown in Dulbecco's modified Eagle's medium (DMEM) containing 1% penicillin-streptomycin, 5% fetal calf serum and 10% horse serum in humidified incubator with 5% CO2.\nPC12 cells were plated on 96-wells microtiter plates in 100 μl of the appropriate medium. After 24 hours the indicated concentrations of Aβ (25-35) peptide was added alone or together with phanquinone in the designated concentrations. Incubation continued for 24 hours. Following incubation, MTT reduction was measured using a commercially available assay according to the manufacturer's (Boehringer Mannheim) instructions. Assay values obtained by vehicle alone were defined as 100%.\nMTT is a substrate for intracellular and plasma membrane oxidoreductases and has been widely used to measure reductions of cell redox activity.\nTo test the effect of phanquinone on Aβ (25-35) induced toxicity in PC12 cells, PC12 cells were exposed to Aβ (25-35) peptide concentrations ranging from 0 to 10 μM. In the absence of phanquinone (i.e. only vehicle added) Aβ (25-35) produced a dose-dependent inhibition of MTT reduction. […]"}, "[4]": {"settings": "single high test concentration, Huh7 ET"}}, "data": [{"smiles": "Oc1c(I)cc(Cl)c2cccnc12", "note": "[Clioquinol, 5-chloro-7-iodo-8-hydroxyquinoline]", "values": [{"measurement": "inhibition at 20 µM", "setting": "HCV RNA Replicons; [4]", "value": 82.3, "unit": "%"}, {"measurement": "selectivity index S150", "setting": "HCV RNA Replicons; retesting dose response", "value": "over 4.8"}, {"measurement": "selectivity index S190", "setting": "HCV RNA Replicons; retesting dose response", "value": 14}, {"measurement": "Comments (screening verdict)", "setting": "HCV RNA Replicons; [4]", "value": "Potentially active"}, {"measurement": "solubility in water", "setting": "[1]", "value": "Practically insoluble in water"}, {"measurement": "Cytotoxicity (actively dividing cells, percent cell control)", "setting": "Huh7 ET", "value": 73.3, "unit": "%"}, {"measurement": "results with HBV", "setting": "hepatitis B (HBV)", "value": "negative"}, {"measurement": "reduction of Cu-induced aggregation of Aβ (1-40)", "setting": "Aβ (1-40)", "value": "approximately 30%"}, {"measurement": "reduction of Zn-induced aggregation of Aβ (1-40)", "setting": "Aβ (1-40)", "value": "more than 60%"}, {"measurement": "inhibition at 100 µM", "setting": "MMP-2", "value": 28, "unit": "%"}, {"measurement": "inhibition at 1000 µM", "setting": "MMP-2", "value": 26, "unit": "%"}, {"measurement": "inhibition at 10000 µM", "setting": "MMP-2", "value": 101, "unit": "%"}, {"measurement": "inhibition at 100 µM", "setting": "MMP-1", "value": 12, "unit": "%"}, {"measurement": "inhibition at 100 µM", "setting": "MMP-7", "value": 20, "unit": "%"}, {"measurement": "inhibition at 100 µM", "setting": "MMP-9", "value": 19, "unit": "%"}, {"measurement": "inhibition at 100 µM", "setting": "MMP-3", "value": 7, "unit": "%"}]}, {"smiles": "O=C1C(=O)c2ncccc2-c2cccnc21", "note": "[Phanquinone, 4,7-phenanthroline-5,6-dione]", "values": [{"measurement": "inhibition at 20 µM", "setting": "HCV RNA Replicons; [4]", "value": 83.2, "unit": "%"}, {"measurement": "activity against HCV RNA replicons", "setting": "HCV RNA Replicons; retest with dose response curve, Huh7 ET", "value": "no activity"}, {"measurement": "Comments (screening verdict)", "setting": "HCV RNA Replicons; [4]", "value": "Toxic"}, {"measurement": "Selectivity Index", "setting": "HCV RNA Replicons; [4]", "value": "<1"}, {"measurement": "Cytotoxicity (actively dividing cells, percent cell control)", "setting": "Huh7 ET", "value": 10.5, "unit": "%"}, {"measurement": "results with HBV", "setting": "hepatitis B (HBV)", "value": "negative"}, {"measurement": "ability of copper chelation compared to clioquinol", "setting": "[2]", "value": "three times more pronounced"}, {"measurement": "reduction of Cu-induced aggregation of Aβ (1-40)", "setting": "Aβ (1-40)", "value": "50-60%"}, {"measurement": "reduction of Zn-induced aggregation of Aβ (1-40)", "setting": "Aβ (1-40)", "value": "approximately 10%"}, {"measurement": "adverse effect on the nervous system", "setting": "[3]; in vivo", "value": "no evidence"}, {"measurement": "deaths, fetal malformations, drug interactions or carcinogenicity related to treatment", "setting": "[3]; in vivo", "value": "no reports"}, {"measurement": "tolerability", "setting": "[3]; most often 200-400 mg/day for 7 to 10 days", "value": "well tolerated"}, {"measurement": "inhibition of MTT reduction by Aβ (25-35)", "setting": "PC12 cells; Aβ 10 μM, 24 hours", "value": "around 10%"}, {"measurement": "effect on the toxic effect of Aβ (25-35)", "setting": "PC12 cells; Aβ as high as 1 μM", "value": "completely counteracted"}]}]}
